Source: US12570627B2, “Pharmaceutical composition in which production of impurities is suppressed” (Shionogi & Co., Ltd., priority 2020, dated 2026)
Where “and” joins values, the source holds several entries; their conditions need not be identical. Equal values may be shown once.

Assays:
Format in all cases: physicochemical
[1] = Measurement of content ratio of compound represented by Formula (III) contained in crystal (Test Example 1); settings: crystal as produced
Procedure: The content ratio of the compound represented by Formula (III) in the dihydrate crystal of the compound represented by Formula (I) produced in Example L was determined by the following method.
In Examples 1 to 4 and 6 and Reference Examples 1 to 2, the content ratio was determined in the same manner.
(§1) A standard sample of the compound represented by Formula (III) was prepared by the following method, • Step 1: About 25 µg of the compound represented by Formula (III) was weighed precisely, and dissolved in a mixed solution of N,N-dimethylformamide and water (9:1) to make exactly 20 mL, • Step 2: One milliliter of the solution of Step 1 was accurately taken, and a mixed solution of N,N-dimethylformamide and water (9:1) was added to make exactly 50 mL. • Step 3: Two milliliters of the solution of Step 2 was accurately taken, and a mixed solution of N,N-dimethylformamide and water (9:1) was added to make exactly 20 mL, thereby obtaining a standard solution. (Preparation of Sample Solution)
(§2) About 125 to 600 mg of a sample was weighed precisely, and dissolved by adding a mixed solution of N,N-dimethylformamide and water (9:1) to make exactly 5 mL.
(§3) An amount of the compound represented by Formula (III) was measured with a liquid chromatograph according to the following method and conditions. • Measuring instrument: UHPLC (NexeraX2, SHIMADZU) • Detector: UV • Measurement wavelength: 271 nm • Column: ACQUITY UPLC BEH SHIELD PR18, 1.7 μm (2.1×100 mm) • Column temperature: constant temperature at near 40° C. • Mobile phase A: 20 mmol/L potassium dihydrogen phosphate aqueous solution • Mobile phase B: acetonitrile for liquid chromatography • Feed of mobile phase: The mixing ratio of mobile phase A and mobile phase B was changed as shown in Table 1 to control concentration gradient.
(§4) • Flow rate: 0.3 mL/min • Injection amount 2 μL • Sample cooler temperature: 5° C. • Area measurement range: 11 minutes after injection • Needle washing solution: mixed solution of N,N-dimethylformamide and water (9:1) (Calculation Formula) Content (ppm) of compound represented by Formula(III)=MS/MT×AT/AS×1/2000×1000000 (Mathematical formula 4) • MS: Weighing amount (mg) of compound represented by Formula (III) • MT: Weighing amount (mg) of sample • AS: Peak area of compound represented by Formula (III) obtained from standard solution • AT: Peak area of compound represented by Formula (III) obtained from sample solution • 1/2000: Dilution ratio

[2] = 90% particle size distribution, laser diffraction HELOS & RODOS (Test Example 2); settings: dispersion pressure 4 bar
Procedure: A 90% particle size distribution in the production method of Reference Example 1 was determined by the following method.
In Examples 1 to 6 and Reference Example 3, the 90% particle size distribution was determined in the same manner.
A 90% particle size distribution was measured according to the following method and conditions. • Measuring instrument: laser diffraction particle size distribution measuring apparatus (HELOS & RODOS, Sympatec GmbH) • Dispersion pressure: 4 bar • Feed: 50% • Rotation: 20% • Focal length: 50 mm • Trigger condition: reference duration 2 seconds • Time Base 100 ms • Start Optical concentration ≥1.0% • Stop Optical concentration ≤1.0% • Measurement range: R2

[3] = Measurement of content ratio of compound represented by Formula (III) contained in solution; increase during crystallization operation (Test Example 3); settings: for Increased amount of content ratio of compound represented by Formula (III) during crystallization operation: total in filtrate and crystal minus solution before crystallization; for Total amount of the content ratio of compound represented by Formula (III) contained in the filtrate after filtration and the obtained crystal: after crystallization; for Content ratio of compound represented by Formula (III) in the solution before crystallization: reaction solution / dissolved anhydrate crystal
Procedure: The content ratio of the compound represented by Formula (JII) in the solution in the production method of Example 1 was determined by the following method.
In Example 4 and Reference Examples 2 to 3, the content ratio was determined in the same manner.
as §1, with “the following method. • Step” for “the following method, • Step”, “About 25 mg of the” for “About 25 µg of the”, “exactly 20 mL. • Step” for “exactly 20 mL, • Step”, “exactly 20 ml, thereby obtaining” for “exactly 20 mL, thereby obtaining”
About 60 to 1300 mg of a sample was weighed precisely, and dissolved by adding a mixed solution of N,N-dimethylformamide and water (9:1) to make exactly 5 mL.
as §3, with “SHIELD PF18,” for “SHIELD PR18,”, “Table 2” for “Table 1”
• Flow rate: 0.3 mL/min • Injection amount: 2 μL • Sample cooler temperature: 5° C. • Area measurement range: 11 minutes after injection • Needle washing solution: mixed solution of N,N-dimethylformamide and water (9:1) (Calculation formula) Content (ppm) of compound represented by Formula(III)=MS/MT×AT/AS×1/2000×YT/YS×1000000 (Mathematical formula 3) • MS: Weighing amount (mg) of compound represented by Formula (III) • MT: Weighing amount (mag) of sample • AS: Peak area of compound represented by Formula (III) obtained from standard solution • AT: Peak area of compound represented by Formula (III) obtained from sample solution • YS: Yield (g) of compound represented by Formula (I) • YT: Total weight (g) of sample • 1/2000: Dilution ratio

[4] = Stability testing of crystal (Test Example 4); settings: for Content ratio of compound represented by Formula (III), 1M: protect from light, double polyethylene bag with desiccant, metal can
Procedure: as §1, §2, §3, §4
The samples obtained in Example 1 and Reference Example 1 were subjected to a stability testing to evaluate the content of the compound represented by Formula (III).
The storage conditions and the packaging form of Example 1 are shown in Table 3, and the storage conditions and the packaging form of Reference Example 1 are shown in Table 4.
Samples were placed in a polyethylene bag (Suntec-LD M2206 (additive free) 100×210×0.1 mm, TOWA KAKO CO., LTD.) and tightened with Convex (CV100N, SHIBAKEISOZAI CO., LTD.). This bag was further placed in a polyethylene (Suntec-LD M2206 (additive free) 100×210×0.1 mm, TOWA KAKO CO., LTD.) bag and similarly tightened with Convex (CV100N, SHIBAKEISOZAI CO., LTD.). The above samples under the same storage conditions were put together in a metal can (3dia, a stainless steel can with an inner diameter of 16 cm and a depth of 18 cm). • Double polyethylene bag, Convex (containing desiccant), metal can:
Samples were placed in a polyethylene bag (Suntec-LD M2206 (additive free) 100×210×0.1 mm, TOWA KAKO CO., LTD.) and tightened with Convex (CV100N, SHIBAKEISOZAI CO., LTD.). This bag was further placed in a polyethylene bag (Suntec-LD M2206 (additive free) 100×210×0.1 mm, TOWA KAKO) CO., LTD.) and similarly tightened with Convex (CV100N, SHIBAKEISOZAI CO., LTD.). The samples under the same storage conditions were put together in a metal can (3dia, a stainless steel can with an inner diameter of 16 cm and a depth of 18 cm) containing silica gel (using raw materials manufactured by Fuji Silysia Chemical Ltd., contained in 1 g bag).
The content of the compound represented by Formula (III) was confirmed in the same manner as in Test Example 1.

## C[C@@H](Cn1c(=O)[nH]/c(=N\c2ccc(Oc3ccccn3)cc2)n(Cc2ccc(Cl)cc2)c1=O)C(=O)O [Example 2]
[1]
  Content ratio of compound represented by Formula (III) in the obtained crystal: 1.0 ppm
[2]
  90% particle size distribution: 7.17 μm

## C[C@@H](Cn1c(=O)[nH]/c(=N\c2ccc(Oc3ccccn3)cc2)n(Cc2ccc(Cl)cc2)c1=O)C(=O)O [Example 3]
[1]
  Content ratio of compound represented by Formula (III) in the obtained crystal: 1.5 ppm
[2]
  90% particle size distribution: 6.48 μm

## C[C@@H](Cn1c(=O)[nH]/c(=N\c2ccc(Oc3ccccn3)cc2)n(Cc2ccc(Cl)cc2)c1=O)C(=O)O [Example 4]
[3]
  Increased amount of content ratio of compound represented by Formula (III) during crystallization operation: 8.7 ppm
[1]
  Content ratio of compound represented by Formula (III) in the obtained crystal: 1.30 ppm

## C[C@@H](Cn1c(=O)[nH]/c(=N\c2ccc(Oc3ccccn3)cc2)n(Cc2ccc(Cl)cc2)c1=O)C(=O)O [Example 5]
[2]
  90% particle size distribution: 27.57 μm

## C[C@@H](Cn1c(=O)[nH]/c(=N\c2ccc(Oc3ccccn3)cc2)n(Cc2ccc(Cl)cc2)c1=O)C(=O)O [Example 6]
[1]
  Content ratio of compound represented by Formula (III) in the obtained crystal: 1.0 ppm
[2]
  90% particle size distribution: 61.22 μm

## C[C@@H](Cn1c(=O)[nH]/c(=N\c2ccc(Oc3ccccn3)cc2)n(Cc2ccc(Cl)cc2)c1=O)C(=O)O [Example L]
[1]
  Content ratio of compound represented by Formula (III) in the obtained crystal: not detected
[1]; listed as dihydrate crystal of the compound represented by Formula (I)
  Content ratio of compound represented by Formula (III) in the obtained crystal: not contained or is below a detection limit

## C[C@@H](Cn1c(=O)[nH]/c(=N\c2ccc(Oc3ccccn3)cc2)n(Cc2ccc(Cl)cc2)c1=O)C(=O)O [Reference Example 1]
[4]; 40±2° C./75±5% RH, 1 month
  Increased amount of compound represented by Formula (III) from the start of the test: 12 ppm
[4]; 40±2° C./75±5% RH, 3 months
  Content ratio of compound represented by Formula (III), 3M: 18 ppm
  Increased amount of compound represented by Formula (III) from the start of the test: 15 ppm
[4]; 40 ± 2° C./75 ± 5% RH, 3 months, listed as Reference example 1
  Content ratio of compound represented by Formula (III), 3M: 18 ppm
[4]; 40 ± 2° C./75 ± 5% RH, 1 month
  Content ratio of compound represented by Formula (III), 1M: 15 ppm
[4]; 40 ± 2° C./75 ± 5% RH, 1 month, listed as Reference example 1
  Content ratio of compound represented by Formula (III), 1M: 15 ppm
[4]; start of test
  Content ratio of compound represented by Formula (III), Initial: 3 ppm
[2]
  90% particle size distribution: 14.53 μm

## C[C@@H](Cn1c(=O)[nH]/c(=N\c2ccc(Oc3ccccn3)cc2)n(Cc2ccc(Cl)cc2)c1=O)C(=O)O [Reference Example 2]
[3]
  Total amount of the content ratio of compound represented by Formula (III) contained in the filtrate after filtration and the obtained crystal: 316.7 ppm
  Content ratio of compound represented by Formula (III) in the solution before crystallization: 178.9 ppm
[1]
  Content ratio of compound represented by Formula (III) in the obtained crystal: 1.3 ppm and 1.30 ppm

## C[C@@H](Cn1c(=O)[nH]/c(=N\c2ccc(Oc3ccccn3)cc2)n(Cc2ccc(Cl)cc2)c1=O)C(=O)O [Reference Example 3]
[3]
  Total amount of the content ratio of compound represented by Formula (III) contained in the filtrate after filtration and the obtained crystal: 252.5 ppm
  Content ratio of compound represented by Formula (III) in the solution before crystallization: 82.0 ppm
  Increased amount of content ratio of compound represented by Formula (III) during crystallization operation: 170.5 ppm
[2]
  90% particle size distribution: 169.84 μm
